The text below walks through data of PMC11840923, “Kinetic and Thermodynamic Characterization of Human 4-Oxo-L-proline Reductase Catalysis” (Biochemistry, 2025).

Assay [1] has as its target T1, 4-oxo-L-proline reductase (HsBDH2) (Homo sapiens, UniProt Q9BUT1).
T1 construct: gene BDH2
The assay can be described thus: ITC at […] °C, pH […] ([…] stoichiometry); also DSF and stopped-flow koff. The format is binding.

For assay [2], the target named is T1, 4-oxo-L-proline reductase (HsBDH2). Nature of the assay: ITC at […] °C, pH […] (number of sites fixed at one); also DSF. Type of assay: binding.

T1 sequence (Q9BUT1 whole entry): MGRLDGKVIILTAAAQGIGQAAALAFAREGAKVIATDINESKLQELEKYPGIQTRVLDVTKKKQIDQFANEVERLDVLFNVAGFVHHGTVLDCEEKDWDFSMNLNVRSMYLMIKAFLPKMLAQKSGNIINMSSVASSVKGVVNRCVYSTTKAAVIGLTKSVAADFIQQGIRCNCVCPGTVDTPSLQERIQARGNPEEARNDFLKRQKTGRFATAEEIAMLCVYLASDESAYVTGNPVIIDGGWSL

The compound `NC(=O)C1=CN([C@@H]2O[C@H](COP(=O)(O)OP(=O)(O)OC[C@H]3O[C@@H](n4cnc5c(N)ncnc54)[C@H](O)[C@@H]3O)[C@@H](O)[C@H]2O)C=CC1` [NADH] came in with a Kd in assay [1] of 0.48 µM. In the case of `NC(=O)c1ccc[n+]([C@@H]2O[C@H](COP(=O)([O-])OP(=O)(O)OC[C@H]3O[C@@H](n4cnc5c(N)ncnc54)[C@H](O)[C@@H]3O)[C@@H](O)[C@H]2O)c1` [NAD^+], the Kd in assay [2] worked out at 29 µM.
